Here are results for three molecules from article PMC8795987, “Time-dependent inhibition of CYP3A4-mediated midazolam metabolism by macrolide antibiotics in CYP3A4 genetic variants: Comparison with testosterone metabolism” (International Journal of Clinical Pharmacology and …, 2021).

The target in data set [1] is T1, CYP3A4.2 (Homo sapiens, UniProt P08684, S222P).
T1 construct: made in house; host or cells: Escherichia coli
The data set can be described thus: Mechanism-based inhibition of midazolam 1′-hydroxylation by recombinant CYP3A4.2. In kind it is biochemical. The settings on record: substrate midazolam, geometric mean (–1S.D. ~ +1S.D.), n = 5. As for the experimental part:
(§1) 1′-Hydroxymidazolam was purchased from Biosciences-Discovery Labware (Tokyo, Japan). The membrane fraction of CYP3A4 (WT, .2, .7, .16, .18) expressed by Escherichia coli were prepared according to our previously reported method. All other chemicals and reagents of analytical and high-performance liquid chromatography (HPLC) grade were obtained from commercial sources.
(§2) Next, 4 µM midazolam solution (final concentration at incubation: 2 µM) together with NADPH-generating system solution and 300 mM K^+ phosphate buffer containing 0.3 mM EDTA were added to start the metabolic reaction for 20 minutes at 37 °C. The reaction was terminated by the addition of 450 µL of ice-cold methanol, followed by 50 µL of 0.1 µM nitrazepam as an internal standard. The mixture was then centrifuged at 3,500 ×g for 20 minutes at 4 °C, and the concentration of 1′-hydroxymidazolam in the supernatant was determined using HPLC-ultraviolet (UV) method described below.
(§3) The HPLC system consisted of a pump ([…]; Shimadzu, Kyoto, Japan), an UV-detector SPD-10AD (Shimadzu), and an octadecylsilyl column (Cosmosil, 5C18-MS-II, 4.6×250 mm, ODS; Nacalai Tesque, Kyoto, Japan). The mobile phase consisted of 50% methanol (v/v) and was pumped at a rate of 1.5 mL/min. The UV wavelength was set at 245 nm.

Data set [2] deals with T2, CYP3A4.16 (Homo sapiens, UniProt P08684, T185S).
T2 construct: made in house; host or cells: Escherichia coli
The data set can be described thus: Mechanism-based inhibition of midazolam 1′-hydroxylation by recombinant CYP3A4.16. It counts as biochemical. Particulars: substrate midazolam, geometric mean (–1S.D. ~ +1S.D.), n = 5. As for the experimental part:
as §1, §2, §3

The conditions of data set [3]: erythromycin; cited from earlier work.
For data set [4], the target named is T3, CYP3A4 WT (Homo sapiens, UniProt P08684).
T3 construct: made in house; host or cells: Escherichia coli
The data set can be described thus: Mechanism-based inhibition of midazolam 1′-hydroxylation by recombinant CYP3A4 WT. It counts as biochemical. The settings on record: substrate midazolam, geometric mean (–1S.D. ~ +1S.D.), n = 5, read-out: K I. Here is the method:
as §1, §2, §3

Data set [5] can be described thus: Clinical plasma concentration. It counts as in vivo, human. The settings on record: for Cmax,u (maximum plasma unbound concentration in the clinical settings): Cmax × fu; for Cmax: oral, human plasma, converted from μg/mL.
Data set [6] deals with T4, CYP3A4.7 (Homo sapiens, UniProt P08684, G56D).
T4 construct: made in house; host or cells: Escherichia coli
Kind of data set: Mechanism-based inhibition of midazolam 1′-hydroxylation by recombinant CYP3A4.7. It counts as biochemical. The settings on record: substrate midazolam, geometric mean (–1S.D. ~ +1S.D.), n = 5. Here is the method:
as §1, §2, §3

For data set [7], the system named is five CYP3A4 genetic variants (Wt, .2, .7, .16, .18). Kind of data set: Mechanism-based inhibition of midazolam 1′-hydroxylation, results stated across the five variants. The settings on record: all CYP3A4 variants; preincubation with NADPH-generating system. In kind it is biochemical, human. As for the experimental part: as §2, §3
(§4) Based on the static model, residual enzyme activity (ε) under the steady state is determined by the inactivation rate by the MBI inhibitor (k inact ([I])) and the turnover rate in the absence of inhibitor (k deg), and calculated by using the following Equation 2.

Data set [8] concerns CYP3A4 WT, .2, .7, .16, .18. Described as above. It counts as biochemical, human. The settings on record: human, pH 7.4, probe midazolam 2 µM (1′-hydroxylation), range over the five variants. Here is the method:
as §2, §3, §4

Data set [9] concerns CYP3A4 genetic variants. The data set can be described thus: Static model estimate of residual enzyme activity and midazolam AUC ratio in CYP3A4 genetic variants. Details: species or system human. The settings on record: all genetic variants; increase in AUC of 2- to < 5-fold; estimated. Here is the method: as §4
Data set [10] concerns CYP3A. The settings on record: cited from earlier work.

T2 sequence (P08684 whole entry T185S): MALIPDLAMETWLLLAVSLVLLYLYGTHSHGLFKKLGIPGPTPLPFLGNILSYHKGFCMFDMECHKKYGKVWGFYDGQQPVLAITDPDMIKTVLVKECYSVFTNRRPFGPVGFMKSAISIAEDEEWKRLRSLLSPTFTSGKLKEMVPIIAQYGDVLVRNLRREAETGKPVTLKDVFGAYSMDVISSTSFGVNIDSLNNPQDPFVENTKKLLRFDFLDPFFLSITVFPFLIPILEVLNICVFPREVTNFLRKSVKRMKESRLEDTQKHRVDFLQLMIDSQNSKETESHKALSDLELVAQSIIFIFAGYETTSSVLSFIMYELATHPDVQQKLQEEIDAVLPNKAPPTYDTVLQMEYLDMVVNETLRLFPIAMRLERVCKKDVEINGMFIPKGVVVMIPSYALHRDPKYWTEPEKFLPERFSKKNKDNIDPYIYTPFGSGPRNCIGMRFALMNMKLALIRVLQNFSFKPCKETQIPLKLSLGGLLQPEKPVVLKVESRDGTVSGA
T3 sequence (P08684 whole entry): as the sequence (P08684 whole entry T185S) above, with S185T counted along it
T1 sequence (P08684 whole entry S222P): as the sequence (P08684 whole entry T185S) above, with S185T, S222P counted along it
T4 sequence (P08684 whole entry G56D): as the sequence (P08684 whole entry T185S) above, with G56D, S185T counted along it

Usually Cmax stands for the highest concentration seen after dosing. `CC[C@H]1OC(=O)[C@H](C)[C@@H](O[C@H]2C[C@@](C)(OC)[C@@H](O)[C@H](C)O2)[C@H](C)[C@@H](O[C@@H]2O[C@H](C)C[C@H](N(C)C)[C@H]2O)[C@](C)(O)C[C@@H](C)C(=O)[C@H](C)[C@@H](O)[C@]1(C)O` [Erythromycin]: the Ki is 1140 nM in data set [1], 1820 nM in data set [2] and 512 nM in data set [6]. Besides, in [3], the “fu,mic (estimated unbound fraction in microsomal preparation)” value is listed as 0.857. In addition, in data set [4], the KI (inactivator concentration giving half-maximal inactivation rate) came to 677 nM. The “Cmax,u (maximum plasma unbound concentration in the clinical settings)” value in [5] came to 0.721 µM. The Cmax in data set [5] stood at 1120 nM.
Consider `CC[C@H]1OC(=O)[C@H](C)[C@@H](O[C@H]2C[C@@](C)(OC)[C@@H](O)[C@H](C)O2)[C@H](C)[C@@H](O[C@@H]2O[C@H](C)C[C@H](N(C)C)[C@H]2O)[C@](C)(OC)C[C@@H](C)C(=O)[C@H](C)[C@@H](O)[C@]1(C)O` [Clarithromycin], for which the “inhibition of 1′-hydroxylation of midazolam by all CYP3A4 variants” value in data set [7] is “time-dependent manner”. The Ki in data set [8] (in vitro data in the present study, substrate midazolam, read-out: KI (range among variants)) lay within 689 to 2690 nM. Also, in [8] (product of K I and fu,mic, read-out: KI,u (unbound concentration of inhibitor that confers half-maximal rate of inactivation)), the KI (inactivation) is 590 to 2310 nM. The “extent of DDI category based on the FDA guideline” value in data set [9] was “moderate”. In [5], the “Cmax,u (maximum plasma unbound concentration in the clinical settings)” value turned out to be 0.775 µM and the Cmax amounted to 1550 nM.
As to `Cc1ncc2n1-c1ccc(Cl)cc1C(c1ccccc1F)=NC2` [midazolam, Midazolam], the “fm,CYP3A (contribution of 1-hydroxylation by CYP3A to overall systemic elimination)” value in [10] is given as 98%.
